For one series, the target named is T1, Human GLP-1R (Homo sapiens, UniProt P43220).
T1 construct: expressed in transfected cells; host or cells: 293A cells stably expressing GLP-1R-GFP
Description: GLP-1R agonistic activity, HTRF cAMP assay in 293A GFP-GLP-1R cells. Particulars: cAMP pathway. The class given is cell-based. The source says:
The method was a competitive immunoassay.
For orientation: In TR-FRET formats the signal depends on donor and acceptor labels being close together.

A short description of series [1]: Equilibrium solubility, 24 hours at 37°C in 4 media, with XRPD of residual solid. Type of series: physicochemical. Particulars: for Crystal Form: XRPD. The method, then:
After 24 hours, samples were taken and centrifuged for separation. The obtained solids were tested by XRPD, and the supernatants were filtered for solubility testing.

Series [2] can be described thus: Hygroscopicity by dynamic vapor sorption (DVS) at 25°C. The class given is physicochemical.
A short description of series [3]: Solid-state stability under long-term and accelerated conditions (HPLC purity, crystal form). Particulars: for Purity (% Area) / purity decrease: 10 days. Type of series: physicochemical. The source says:
[table] […] Table E-3: Results of Solid-State Stability Determination

Series [4] in a line: High-temperature stability at 60°C (HPLC purity, crystal form). The following applies: for Purity (% Area) / purity decrease: 60°C. Type of series: physicochemical. The source says:
[table] […] Table E-4: Results of High-Temperature Stability Determination

The nature of series [5]: High-humidity stability at 90% RH (HPLC purity, crystal form). The following applies: for Purity (% Area) / purity decrease: 90% RH. The class given is physicochemical. The source says:
[table] […] Table E-5: Results of High-Humidity Stability Determination

Series [6] is described as follows: Pressure stability at 1000 Mpa for 5 minutes (HPLC purity, crystal form). The class given is physicochemical. The source says:
[table] […] Table E-6: Results of Pressure Stability Determination

Series [7] is described as follows: Crystal form stability on drying or sealed storage. The class given is physicochemical. Particulars: dried at 50°C for 3 hours. The source says:
The 4 metastable crystal forms described in Example 4 had lower crystal form stability than each crystal form described in Example 3.

The nature of series [8]: Suspension competition test of Crystal Form A and Crystal Form G. The class given is physicochemical. The following applies: Crystal Form A and Crystal Form G in EtOH and a mixture of MeOH and water, room temperature and 50°C.

In brackets after ≈: the same amount, converted by molar mass.

T1 sequence (P43220 24-463): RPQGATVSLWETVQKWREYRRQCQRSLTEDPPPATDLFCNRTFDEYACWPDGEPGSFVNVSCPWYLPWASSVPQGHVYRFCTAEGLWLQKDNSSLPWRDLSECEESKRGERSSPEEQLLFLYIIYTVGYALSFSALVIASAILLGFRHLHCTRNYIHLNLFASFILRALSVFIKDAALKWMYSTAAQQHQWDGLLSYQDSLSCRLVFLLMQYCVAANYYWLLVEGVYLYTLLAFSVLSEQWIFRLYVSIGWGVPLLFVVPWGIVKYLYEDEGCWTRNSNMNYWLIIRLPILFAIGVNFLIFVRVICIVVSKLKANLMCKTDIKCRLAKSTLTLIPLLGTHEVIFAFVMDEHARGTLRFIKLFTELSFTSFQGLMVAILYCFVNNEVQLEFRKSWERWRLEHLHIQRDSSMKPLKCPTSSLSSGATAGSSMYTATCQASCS

In the case of `O=C(O)c1ccc2nc(CN3CCC(c4cccc(OCc5ccc(C6COC6)cc5F)n4)CC3)n(C[C@@H]3CCO3)c2c1` [Compound 1, (S)-2-((4-(6-((2-fluoro-4-(oxetan-3-yl)benzyl)oxy)pyridin-2-yl)piperidin-1-yl)methyl)-1-(oxetan-2-ylmethyl)-1H-benzo[d]imidazole-6-carboxylic acid], the “agonistic effect on GLP-1R” value at Human GLP-1R is recorded as “strong agonistic effect”.

Turning to `O=C(O)c1ccc2nc(CN3CCC(c4cccc(OCc5ccc(C6COC6)cc5F)n4)CC3)n(C[C@@H]3CCO3)c2c1` [Crystal Form G, (S)-2-((4-(6-((2-fluoro-4-(oxetan-3-yl)benzyl)oxy)pyridin-2-yl)piperidin-1-yl)methyl)-1-(oxetan-2-ylmethyl)-1H-benzo[d]imidazole-6-carboxylic acid], the “Whether the Crystal Form Changed” value in series [1] (24 h in FaSSGF) is recorded as “YES”. Further, the results for the “Solubility after 24 h” value in series [1] (FaSSGF), in series [1] (FaSSIF) and in [1] (FeSSIF) were less than 10 µg/mL, 80 µg/mL (≈ 136 µM) and 270 µg/mL (≈ 460 µM), respectively. The “Crystal Form” value in series [1] (solid after 24 h in FaSSGF) is recorded as “a hydrochloride salt was formed”; in [1] (solid after 24 h in FaSSIF) it was “Crystal Form G”; in [1] (solid after 24 h in FeSSIF), “Crystal Form G”; in series [1] (solid after 24 h in H2O) it was “Crystal Form G”. In addition, the “Sample Weight Change at 80% RH (%)” value in series [2] was found to be 0.73%. Besides, the “Purity (% Area)” value in series [3] (25°C/60%RH) is recorded as 97.37 % Area; in [3] (40°C/75%RH) it was 97.43 % Area; in series [4] (1 day) it was 97.55 % Area; in series [4] (10 days), 96.63 % Area; in series [5] (1 Day), 97.67 % Area; in [5] (10 days) it was 96.53 % Area. Further, the “Purity (% Area)” value in series [6] (1000 Mpa, 5 min) came to 97.65 % Area. For the same compound, the purity decrease result in [3] (accelerated conditions (40°C/75% RH)) was “about 0.4%”; in [3] (long-term conditions (25°C/60% RH)) it was “about 0.4%”; in series [4] (1 day) it was “about 0.3%”; in series [4] (10 days), “about 1.2%”; in series [5] (1 day), “about 0.1%”; in series [5] (10 days) it was “about 1.3%”. The purity decrease result in series [6] (1000 Mpa, 5 min) is on record as “about 0.2%”. Moreover, the crystal form change result in [3] (before and after testing, long-term and accelerated conditions) was “no crystal form change was observed”. Moreover, the “Initial Purity (% Area)” value in series [3] (initial, before storage) was determined as 97.81 % Area; in [4] (initial, before storage), 97.81 % Area; in series [5] (initial, before storage), 97.81 % Area; in [6] (initial, before pressing) it was 97.81 % Area. In addition, the “crystal form change after drying” value in series [7] is “no crystal form change is observed”. Moreover, the “outcome of suspension competition test” value in series [8] was “thermodynamically more stable”.
